Laboratory results taken from PubChem BioAssay AID222 (DTP/NCI, 2004).
Where “and” joins values, the source holds several entries; their conditions need not be identical. Equal values may be shown once. Inconclusive results and toxic doses are left out.

Test system: C57BL/6 mice, intracerebral ependymoblastoma, median survival T/C
Experiment: NCI In Vivo Anticancer Drug Screen. Data for tumor model Ependymoblastoma (intracerebral) in C57BL/6 mice
Conditions: endpoint: median survival time, higher = longer survival
Method: The antitumor activity of compounds was measured in mice bearing transplantable tumors. Survival or tumor size were measured and the results are expressed as the measurement made in the treated group (T) divided by the measurement made in the vehicle treated control group (C). The tumor model used in this assay is Ependymoblastoma (intracerebral) in C57BL/6 mice

[1] = dose: 64.0 mg/kg/injection, schedule: Q01DX005 (ip), vehicle: saline with Tween-80

Q: `Cc1[nH]c(=O)[nH]c(=O)c1N(CCF)CCCl` was tested. Which T/C (dose: 2.0 mg/kg/injection, schedule: Q01DX005 (ip), vehicle: saline with Tween-80) did it give?
A: 96 % of control and 104 % of control

Q: What about the T/C (dose: 4.0 mg/kg/injection, schedule: Q01DX005 (ip), vehicle: saline with Tween-80) of the same compound?
A: 97 % of control and 105 % of control

Q: And the T/C (dose: 4.0 mg/kg/injection, schedule: Q## X006 (ip), vehicle: Klucel (hydroxypropylcellulose) (HPC))?
A: 111 % of control

Q: What about the T/C (dose: 8.0 mg/kg/injection, schedule: Q01DX005 (ip), vehicle: saline with Tween-80) of the same compound?
A: 97 % of control and 106 % of control

Q: What about the T/C (dose: 8.0 mg/kg/injection, schedule: Q## X006 (ip), vehicle: Klucel (hydroxypropylcellulose) (HPC)) of the same compound?
A: 106 % of control

Q: What about the T/C (dose: 8.0 mg/kg/injection, schedule: Q#A X002 (ip), vehicle: Klucel (hydroxypropylcellulose) (HPC)) of the same compound?
A: 101 % of control

Q: And the T/C (dose: 16.0 mg/kg/injection, schedule: Q01DX001 (ip), vehicle: Klucel (hydroxypropylcellulose) (HPC))?
A: 93 % of control and 102 % of control

Q: And the T/C (dose: 16.0 mg/kg/injection, schedule: Q01DX005 (ip), vehicle: saline with Tween-80)?
A: 108 % of control and 109 % of control

Q: And the T/C (dose: 16.0 mg/kg/injection, schedule: Q01DX005 (oral), vehicle: Klucel (hydroxypropylcellulose) (HPC))?
A: 111 % of control

Q: And the T/C (dose: 16.0 mg/kg/injection, schedule: Q#A X002 (ip), vehicle: Klucel (hydroxypropylcellulose) (HPC))?
A: 99 % of control

Q: And the T/C (dose: 32.0 mg/kg/injection, schedule: Q01DX001 (ip), vehicle: Klucel (hydroxypropylcellulose) (HPC))?
A: 92 % of control and 101 % of control and 105 % of control

Q: And the T/C (dose: 32.0 mg/kg/injection, schedule: Q01DX005 (oral), vehicle: Klucel (hydroxypropylcellulose) (HPC))?
A: 94 % of control

Q: What about the T/C (dose: 32.0 mg/kg/injection, schedule: Q#A X002 (ip), vehicle: Klucel (hydroxypropylcellulose) (HPC)) of the same compound?
A: 111 % of control

Q: And the T/C (dose: 64.0 mg/kg/injection, schedule: Q01DX001 (ip), vehicle: Klucel (hydroxypropylcellulose) (HPC))?
A: 101 % of control and 114 % of control

Q: What about the T/C (dose: 64.0 mg/kg/injection, schedule: Q01DX001 (oral), vehicle: Klucel (hydroxypropylcellulose) (HPC)) of the same compound?
A: 96 % of control and 107 % of control and 111 % of control

Q: What about the T/C (dose: 128.0 mg/kg/injection, schedule: Q01DX001 (ip), vehicle: Klucel (hydroxypropylcellulose) (HPC)) of the same compound?
A: 87 % of control

Q: And the T/C (dose: 128.0 mg/kg/injection, schedule: Q01DX001 (oral), vehicle: Klucel (hydroxypropylcellulose) (HPC))?
A: 90 % of control and 111 % of control

Q: And the T/C (dose: 256.0 mg/kg/injection, schedule: Q01DX001 (oral), vehicle: Klucel (hydroxypropylcellulose) (HPC))?
A: 107 % of control and 86 % of control

Q: What about the T/C (dose: 512.0 mg/kg/injection, schedule: Q01DX001 (oral), vehicle: Klucel (hydroxypropylcellulose) (HPC)) of the same compound?
A: 115 % of control

Q: With `O=c1n(CC2CO2)c(=O)n(CC2CO2)c(=O)n1CC1CO1` (configuration not stated) as the compound, how does the T/C (dose: 20.0 mg/kg/injection, schedule: Q01DX009 (ip), vehicle: saline) read?
A: 114 % of control

Q: And the T/C (dose: 25.0 mg/kg/injection, schedule: Q01DX009 (ip), vehicle: saline)?
A: 114 % of control

Q: And the T/C (dose: 40.0 mg/kg/injection, schedule: Q01DX009 (ip), vehicle: saline)?
A: 124 % of control

Q: And the T/C (dose: 50.0 mg/kg/injection, schedule: Q01DX009 (ip), vehicle: saline)?
A: 111 % of control

Q: What about the T/C (dose: 100.0 mg/kg/injection, schedule: Q01DX009 (ip), vehicle: saline) of the same compound?
A: 95 % of control

Q: Which T/C (dose: 0.05 mg/kg/injection, schedule: Q01DX005 (ip), vehicle: Klucel (hydroxypropylcellulose) (HPC)) does the source give for `CCC1=C[C@H]2CN(CCc3c([nH]c4ccccc34)[C@@](C(=O)OC)(c3cc4c(cc3OC)N(C)[C@H]3[C@@](O)(C(=O)NC)[C@H](OC(C)=O)[C@]5(CC)C=CCN6CC[C@]43[C@@H]65)C2)C1` here?
A: 105 % of control

Q: And the T/C (dose: 0.1 mg/kg/injection, schedule: Q01DX005 (ip), vehicle: Klucel (hydroxypropylcellulose) (HPC))?
A: 98 % of control

Q: And the T/C (dose: 0.2 mg/kg/injection, schedule: Q01DX005 (ip), vehicle: Klucel (hydroxypropylcellulose) (HPC))?
A: 107 % of control

Q: And the T/C (dose: 0.4 mg/kg/injection, schedule: Q01DX005 (ip), vehicle: Klucel (hydroxypropylcellulose) (HPC))?
A: 103 % of control

Q: And the T/C (dose: 0.8 mg/kg/injection, schedule: Q01DX005 (ip), vehicle: Klucel (hydroxypropylcellulose) (HPC))?
A: 93 % of control

Q: What does the source list for `O=C1N(Cl)C(=O)C(c2ccc(Cl)cc2)(c2ccc(Cl)cc2)N1Cl`?
A: T/C (dose: 1.56 mg/kg/injection, schedule: Q01DX005 (ip), vehicle: Klucel (hydroxypropylcellulose) (HPC)): 105 % of control; T/C (dose: 3.12 mg/kg/injection, schedule: Q01DX005 (ip), vehicle: Klucel (hydroxypropylcellulose) (HPC)): 110 % of control; T/C (dose: 6.25 mg/kg/injection, schedule: Q01DX005 (ip), vehicle: Klucel (hydroxypropylcellulose) (HPC)): 99 % of control; T/C (dose: 12.5 mg/kg/injection, schedule: Q01DX005 (ip), vehicle: Klucel (hydroxypropylcellulose) (HPC)): 112 % of control; T/C (dose: 25.0 mg/kg/injection, schedule: Q01DX005 (ip), vehicle: Klucel (hydroxypropylcellulose) (HPC)): 110 % of control

Q: With `Cc1cn(C2CC(O)C(CO)O2)c(=O)[nH]c1=O` (configuration not stated) as the compound, how does the T/C [1] read?
A: 92 % of control and 97 % of control

Q: What about the T/C (dose: 100.0 mg/kg/injection, schedule: Q01DX005 (ip), vehicle: saline with Tween-80) of the same compound?
A: 91 % of control

Q: And the T/C (dose: 128.0 mg/kg/injection, schedule: Q01DX005 (ip), vehicle: saline with Tween-80)?
A: 90 % of control and 105 % of control

Q: What about the T/C (dose: 200.0 mg/kg/injection, schedule: Q01DX005 (ip), vehicle: saline with Tween-80) of the same compound?
A: 98 % of control

Q: What about the T/C (dose: 256.0 mg/kg/injection, schedule: Q01DX005 (ip), vehicle: saline with Tween-80) of the same compound?
A: 95 % of control and 87 % of control

Q: And the T/C (dose: 400.0 mg/kg/injection, schedule: Q01DX005 (ip), vehicle: saline with Tween-80)?
A: 96 % of control

Q: And the T/C (dose: 512.0 mg/kg/injection, schedule: Q01DX005 (ip), vehicle: saline with Tween-80)?
A: 100 % of control

Q: And the T/C (dose: 800.0 mg/kg/injection, schedule: Q01DX005 (ip), vehicle: saline with Tween-80)?
A: 98 % of control

Q: And the T/C (dose: 1024.0 mg/kg/injection, schedule: Q01DX005 (ip), vehicle: saline with Tween-80)?
A: 100 % of control and 101 % of control

Q: And the T/C (dose: 1600.0 mg/kg/injection, schedule: Q01DX005 (ip), vehicle: saline with Tween-80)?
A: 98 % of control

Q: Which T/C (dose: 0.05 mg/kg/injection, schedule: Q01DX005 (ip), vehicle: saline) does the source give for `CC[C@]1(O)C[C@H]2CN(CCc3c([nH]c4ccccc34)[C@@](C(=O)OC)(c3cc4c(cc3OC)N(C=O)[C@H]3[C@@](O)(C(=O)OC)[C@H](OC(C)=O)[C@]5(CC)C=CCN6CC[C@]43[C@@H]65)C2)C1` here?
A: 108 % of control

Q: And the T/C (dose: 0.1 mg/kg/injection, schedule: Q01DX005 (ip), vehicle: saline)?
A: 103 % of control

Q: And the T/C (dose: 0.2 mg/kg/injection, schedule: Q01DX005 (ip), vehicle: saline)?
A: 105 % of control

Q: And the T/C (dose: 0.4 mg/kg/injection, schedule: Q01DX005 (ip), vehicle: saline)?
A: 124 % of control

Q: For `Nc1nncs1`, which T/C (dose: 7.5 mg/kg/injection, schedule: Q01DX009 (ip), vehicle: Klucel (hydroxypropylcellulose) (HPC)) is on record?
A: 112 % of control

Q: And the T/C (dose: 15.0 mg/kg/injection, schedule: Q01DX009 (ip), vehicle: Klucel (hydroxypropylcellulose) (HPC))?
A: 117 % of control

Q: What about the T/C [1] of the same compound?
A: 102 % of control

Q: With `CC(=O)CC(c1ccccc1)c1c(O)c2ccccc2oc1=O` (configuration not stated) as the compound, how does the T/C (dose: 0.09 mg/kg/injection, schedule: Q01DX005 (ip), vehicle: saline) read?
A: 93 % of control

Q: And the T/C (dose: 0.18 mg/kg/injection, schedule: Q01DX005 (ip), vehicle: saline)?
A: 115 % of control

Q: And the T/C (dose: 0.36 mg/kg/injection, schedule: Q01DX005 (ip), vehicle: saline)?
A: 98 % of control

Q: What about the T/C (dose: 1.44 mg/kg/injection, schedule: Q01DX005 (ip), vehicle: saline) of the same compound?
A: 87 % of control

Q: How did the T/C (dose: 40.0 mg/kg/injection, schedule: Q01DX001 (ip), vehicle: Klucel (hydroxypropylcellulose) (HPC)) turn out when `O=P1(NCCCl)OCCC(OO)N1CCCl` (configuration not stated) was run?
A: 121 % of control

Q: And the T/C (dose: 80.0 mg/kg/injection, schedule: Q01DX001 (ip), vehicle: Klucel (hydroxypropylcellulose) (HPC))?
A: 121 % of control

Q: And the T/C (dose: 160.0 mg/kg/injection, schedule: Q01DX001 (ip), vehicle: Klucel (hydroxypropylcellulose) (HPC))?
A: 151 % of control

Q: What does the source list for `Cc1c2cc[n+](C)cc2c(C)c2c1[nH]c1ccc(O)cc12`?
A: T/C (dose: 0.12 mg/kg/injection, schedule: Q01DX005 (ip), vehicle: saline): 100 % of control; T/C (dose: 0.25 mg/kg/injection, schedule: Q01DX005 (ip), vehicle: saline): 101 % of control and 112 % of control; T/C (dose: 0.5 mg/kg/injection, schedule: Q01DX005 (ip), vehicle: saline): 101 % of control

Q: With `CCN(CC)CCNc1ccc(CO)c2sc3ccccc3c(=O)c12` as the compound, how does the T/C (dose: 2.0 mg/kg/injection, schedule: Q01DX005 (ip), vehicle: saline) read?
A: 94 % of control

Q: What about the T/C (dose: 4.0 mg/kg/injection, schedule: Q01DX005 (ip), vehicle: saline) of the same compound?
A: 104 % of control

Q: What about the T/C (dose: 8.0 mg/kg/injection, schedule: Q01DX005 (ip), vehicle: saline) of the same compound?
A: 104 % of control

Q: And the T/C (dose: 16.0 mg/kg/injection, schedule: Q01DX005 (ip), vehicle: saline)?
A: 101 % of control

Q: What about the T/C (dose: 32.0 mg/kg/injection, schedule: Q01DX005 (ip), vehicle: saline) of the same compound?
A: 111 % of control

Q: What about the T/C (dose: 64.0 mg/kg/injection, schedule: Q01DX005 (ip), vehicle: saline) of the same compound?
A: 119 % of control
